Source: PubChem BioAssay AID248 (DTP/NCI, 2004)
Several values for one entry are separate records, joined by “and”; a condition that tells them apart may be missing. Identical values can stand only once. Inconclusive results and toxic doses are left out. No stated cut-off is given here; in the data, active means T/C of 150% or more; inactive means T/C below 125%.

Test system: L1210 leukemia ip in BDF1 mice, survival T/C
Assay: NCI In Vivo Anticancer Drug Screen. Data for tumor model L1210 Leukemia (intraperitoneal) in B6D2F1 (BDF1) mice
Conditions: endpoint: mean survival time, higher = longer survival
Method in brief: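 Transplanted-tumor mice were given test agent; controls received vehicle only. Survival readings from the two groups were divided (treated over control).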

[1] = dose: 100.0 mg/kg/injection, schedule: Q04DX002 (ip), vehicle: saline with Tween-80
[2] = dose: 100.0 mg/kg/injection, schedule: Q04DX002 (ip), vehicle: saline
[3] = dose: 200.0 mg/kg/injection, schedule: Q04DX002 (ip), vehicle: saline with Tween-80
[4] = dose: 200.0 mg/kg/injection, schedule: Q04DX002 (ip), vehicle: saline
[5] = dose: 400.0 mg/kg/injection, schedule: Q04DX002 (ip), vehicle: saline with Tween-80
[6] = dose: 100.0 mg/kg/injection, schedule: Q04DX003 (ip), vehicle: saline with Tween-80
[7] = dose: 200.0 mg/kg/injection, schedule: Q04DX003 (ip), vehicle: saline with Tween-80
[8] = dose: 400.0 mg/kg/injection, schedule: Q04DX003 (ip), vehicle: saline with Tween-80
[9] = dose: 400.0 mg/kg/injection, schedule: Q04DX002 (ip), vehicle: saline
[10] = dose: 100.0 mg/kg/injection, schedule: Q01DX001 (ip), vehicle: saline
[11] = dose: 200.0 mg/kg/injection, schedule: Q01DX001 (ip), vehicle: saline
[12] = dose: 400.0 mg/kg/injection, schedule: Q01DX001 (ip), vehicle: saline
[13] = dose: 100.0 mg/kg/injection, schedule: Q01DX001 (ip), vehicle: saline with Tween-80
[14] = dose: 200.0 mg/kg/injection, schedule: Q01DX001 (ip), vehicle: saline with Tween-80
[15] = dose: 400.0 mg/kg/injection, schedule: Q01DX001 (ip), vehicle: saline with Tween-80
[16] = dose: 50.0 mg/kg/injection, schedule: Q01DX001 (ip), vehicle: Klucel (hydroxypropylcellulose) (HPC)
[17] = dose: 100.0 mg/kg/injection, schedule: Q01DX001 (ip), vehicle: Klucel (hydroxypropylcellulose) (HPC)
[18] = dose: 200.0 mg/kg/injection, schedule: Q01DX001 (ip), vehicle: Klucel (hydroxypropylcellulose) (HPC)
[19] = dose: 100.0 mg/kg/injection, schedule: Q01DX009 (ip), vehicle: Klucel (hydroxypropylcellulose) (HPC)
[20] = dose: 200.0 mg/kg/injection, schedule: Q01DX009 (ip), vehicle: Klucel (hydroxypropylcellulose) (HPC)
[21] = dose: 400.0 mg/kg/injection, schedule: Q01DX009 (ip), vehicle: Klucel (hydroxypropylcellulose) (HPC)
[22] = dose: 100.0 mg/kg/injection, schedule: Q04DX003 (ip), vehicle: Klucel (hydroxypropylcellulose) (HPC)
[23] = dose: 200.0 mg/kg/injection, schedule: Q04DX003 (ip), vehicle: Klucel (hydroxypropylcellulose) (HPC)
[24] = dose: 100.0 mg/kg/injection, schedule: Q01DX009 (ip), vehicle: saline with Tween-80
[25] = dose: 100.0 mg/kg/injection, schedule: Q04DX002 (ip), vehicle: Klucel (hydroxypropylcellulose) (HPC)
[26] = dose: 200.0 mg/kg/injection, schedule: Q04DX002 (ip), vehicle: Klucel (hydroxypropylcellulose) (HPC)
[27] = dose: 400.0 mg/kg/injection, schedule: Q04DX002 (ip), vehicle: Klucel (hydroxypropylcellulose) (HPC)

Measured: T/C

CC(C)CC(C=O)(CCN1CCCCC1)c1cccc2ccccc12 (stereo unspecified)
inactive: [1] 87 % of control and 88 % of control | [2] 98 % of control | [3] 94 % of control and 91 % of control | [4] 91 % of control | [5] 91 % of control

O=C(CC(O)(C(F)(F)F)C(F)(F)F)c1ccccc1Br
inactive: [6] 97 % of control | [7] 97 % of control | [8] 95 % of control

COc1ccc(/C=N/Nc2nnc(N/N=C/c3ccc(OC)c(O)c3)c3ccccc23)cc1O
inactive: dose: 50.0 mg/kg/injection, schedule: Q01DX001 (ip), vehicle: carboxymethylcellulose (CMC) 103 % of control | dose: 100.0 mg/kg/injection, schedule: Q01DX001 (ip), vehicle: carboxymethylcellulose (CMC) 103 % of control | dose: 200.0 mg/kg/injection, schedule: Q01DX001 (ip), vehicle: carboxymethylcellulose (CMC) 103 % of control | dose: 400.0 mg/kg/injection, schedule: Q01DX001 (ip), vehicle: carboxymethylcellulose (CMC) 100 % of control

Nc1nc2ncc(CCNc3ccc(C(=O)NC(CCC(=O)O)C(=O)O)cc3)nc2c(=O)[nH]1 (stereo unspecified)
inactive: dose: 18.75 mg/kg/injection, schedule: Q01DX001 (ip), vehicle: other 96 % of control | dose: 18.75 mg/kg/injection, schedule: Q01DX Z (ip), vehicle: other 103 % of control | dose: 37.5 mg/kg/injection, schedule: Q01DX001 (ip), vehicle: other 97 % of control | dose: 37.5 mg/kg/injection, schedule: Q01DX Z (ip), vehicle: other 102 % of control | dose: 75.0 mg/kg/injection, schedule: Q01DX001 (ip), vehicle: other 104 % of control | dose: 75.0 mg/kg/injection, schedule: Q01DX Z (ip), vehicle: other 112 % of control | dose: 150.0 mg/kg/injection, schedule: Q01DX001 (ip), vehicle: other 119 % of control

NC(CO)CO
inactive: [2] 105 % of control | [4] 108 % of control | [9] 105 % of control

Cc1cc(NS(=O)(=O)c2ccc(N=Nc3cc(N=Nc4ccccc4)c(N)nc3N)cc2)nc(C)n1
inactive: [10] 100 % of control | [11] 100 % of control | [12] 105 % of control

CCCCC/C=C/C/C=C/CCCCCCCC(=O)N1CCOCC1
inactive: [13] 94 % of control | [14] 96 % of control | [15] 97 % of control

COC1=CC2C3=C(C(NC=O)CCc4cc(O)c(OC)c(OC)c43)C2C1=O (stereo unspecified)
inactive: [6] 101 % of control | [7] 93 % of control | [8] 108 % of control

Cc1ccccc1N=Nc1c(O)n(-c2ccccc2Cl)c(=S)n(-c2ccccc2)c1=O
inactive: [16] 98 % of control | [17] 100 % of control | [18] 96 % of control

COc1ccc(OC)c(NC(=O)NC(C)(C)C)c1
inactive: [19] 101 % of control | [20] 103 % of control | [21] 88 % of control

C=C(C)Cc1cnc(SC)[nH]c1=O
inactive: [16] 98 % of control | [17] 100 % of control | [18] 98 % of control

CC(CC(c1ccccc1)c1ccccc1)[N+](C)(C)C (stereo unspecified)
inactive: dose: 5.0 mg/kg/injection, schedule: Q01DX001 (ip), vehicle: carboxymethylcellulose (CMC) 104 % of control | dose: 10.0 mg/kg/injection, schedule: Q01DX001 (ip), vehicle: carboxymethylcellulose (CMC) 101 % of control | dose: 20.0 mg/kg/injection, schedule: Q01DX001 (ip), vehicle: carboxymethylcellulose (CMC) 95 % of control | dose: 40.0 mg/kg/injection, schedule: Q01DX001 (ip), vehicle: carboxymethylcellulose (CMC) 93 % of control | dose: 80.0 mg/kg/injection, schedule: Q01DX001 (ip), vehicle: carboxymethylcellulose (CMC) 98 % of control

O=c1sc2ccccc2n1-c1ccccc1
inactive: [22] 96 % of control | [23] 93 % of control

CCCOCCOCCOC(C)Oc1ccc(C(=O)OC)cc1 (stereo unspecified)
inactive: [2] 101 % of control | [4] 101 % of control | [9] 99 % of control

S=c1cc[nH]c(=S)[nH]1
inactive: dose: 50.0 mg/kg/injection, schedule: Q04DX003 (ip), vehicle: Klucel (hydroxypropylcellulose) (HPC) 97 % of control | [22] 97 % of control | [23] 95 % of control

O=C(CC(=O)Oc1ccc(Cl)cc1Cl)Oc1ccc(Cl)cc1Cl
inactive: [24] 93 % of control | dose: 200.0 mg/kg/injection, schedule: Q01DX009 (ip), vehicle: saline with Tween-80 90 % of control | dose: 400.0 mg/kg/injection, schedule: Q01DX009 (ip), vehicle: saline with Tween-80 95 % of control

Cc1ccc(NC(=S)Nc2ccc(Cc3ccc(NC(=S)Nc4ccc(C)cc4)cc3)cc2)cc1
inactive: [1] 98 % of control | [3] 103 % of control | [5] 88 % of control

Cc1cccc(NC(=S)Nc2ccccc2)c1C
inactive: [25] 94 % of control | [26] 105 % of control | [27] 101 % of control

Cn1nc2ccccc2n1
inactive: dose: 25.0 mg/kg/injection, schedule: Q01DX009 (ip), vehicle: saline with Tween-80 97 % of control | dose: 50.0 mg/kg/injection, schedule: Q01DX009 (ip), vehicle: saline with Tween-80 106 % of control | [24] 100 % of control | [6] 116 % of control

O=S(=O)(O)c1cc(O)c2ccc(NNC(O)c3ccc(Cl)c(Cl)c3)cc2c1 (stereo unspecified)
inactive: dose: 100.0 mg/kg/injection, schedule: Q04DX003 (ip), vehicle: saline 87 % of control | dose: 200.0 mg/kg/injection, schedule: Q04DX003 (ip), vehicle: saline 96 % of control | dose: 400.0 mg/kg/injection, schedule: Q04DX003 (ip), vehicle: saline 98 % of control

CCOC(=O)C1(CCC(C)=O)CCCCC1=O (stereo unspecified)
inactive: [25] 97 % of control | [26] 103 % of control | [27] 100 % of control

CC(=O)OC1CCC2C3CCC4=CC(=O)CCC4(C)C3=CCC12C (stereo unspecified)
inactive: [13] 95 % of control | [14] 95 % of control | [15] 92 % of control

CCOC(=O)c1cc(=O)n(-c2ccc([N+](=O)[O-])cc2)n1C
inactive: [6] 94 % of control | [7] 92 % of control | [8] 94 % of control

CC(C)=C1C2CCC1C(COS(=O)(=O)c1ccc(C)cc1)C2COS(=O)(=O)c1ccc(C)cc1 (stereo unspecified)
inactive: [19] 96 % of control | [22] 98 % of control | [20] 100 % of control | [23] 104 % of control | [21] 94 % of control | dose: 400.0 mg/kg/injection, schedule: Q04DX003 (ip), vehicle: Klucel (hydroxypropylcellulose) (HPC) 102 % of control

CC(O)C(O)C(N)CC=O (stereo unspecified)
inactive: dose: 5.0 mg/kg/injection, schedule: Q01DX001 (ip), vehicle: saline 101 % of control | dose: 10.0 mg/kg/injection, schedule: Q01DX001 (ip), vehicle: saline 113 % of control | dose: 20.0 mg/kg/injection, schedule: Q01DX001 (ip), vehicle: saline 97 % of control | dose: 40.0 mg/kg/injection, schedule: Q01DX001 (ip), vehicle: saline 98 % of control | dose: 100.0 mg/kg/injection, schedule: Q01DX009 (ip), vehicle: saline 102 % of control | dose: 200.0 mg/kg/injection, schedule: Q01DX009 (ip), vehicle: saline 97 % of control | dose: 400.0 mg/kg/injection, schedule: Q01DX009 (ip), vehicle: saline 97 % of control

CC1CC2=C(CCCO2)C(C)C1 (stereo unspecified)
inactive: [11] 95 % of control

CN/N=C/c1[nH]c(=O)[nH]c(=O)c1C
inactive: [10] 93 % of control | [11] 96 % of control | [12] 104 % of control

O=C(O)c1ccc(-c2ccc(O)cc2)cc1
inactive: [19] 98 % of control | [20] 101 % of control | [21] 102 % of control

O=C(O)C1CCC2SC(F)(F)C(F)(F)C2C1 (stereo unspecified)
inactive: [6] 98 % of control | [7] 96 % of control | [8] 98 % of control
